Experimental data reported in paper PMC4982760, “Small-molecule inhibitors identify the RAD52-ssDNA interaction as critical for recovery from replication stress and for survival of BRCA2 deficient cells” (eLife, 2016).

Experiments:
RAD52 [1] = tested on: RAD52; set-up: method as in Chandramouly et al., 2015; details: ref Chandramouly et al., 2015; cited from earlier work
RPA-ssDNA interaction = target: T1, RPA-ssDNA interaction (Homo sapiens, UniProt P15927+P27694+P35244); assay: FRET titration of the RPA-Cy3-dT30-Cy5 complex; assay type: binding; details: range of tested concentrations
T1 construct: made in house
T1 sequence (P27694 whole entry): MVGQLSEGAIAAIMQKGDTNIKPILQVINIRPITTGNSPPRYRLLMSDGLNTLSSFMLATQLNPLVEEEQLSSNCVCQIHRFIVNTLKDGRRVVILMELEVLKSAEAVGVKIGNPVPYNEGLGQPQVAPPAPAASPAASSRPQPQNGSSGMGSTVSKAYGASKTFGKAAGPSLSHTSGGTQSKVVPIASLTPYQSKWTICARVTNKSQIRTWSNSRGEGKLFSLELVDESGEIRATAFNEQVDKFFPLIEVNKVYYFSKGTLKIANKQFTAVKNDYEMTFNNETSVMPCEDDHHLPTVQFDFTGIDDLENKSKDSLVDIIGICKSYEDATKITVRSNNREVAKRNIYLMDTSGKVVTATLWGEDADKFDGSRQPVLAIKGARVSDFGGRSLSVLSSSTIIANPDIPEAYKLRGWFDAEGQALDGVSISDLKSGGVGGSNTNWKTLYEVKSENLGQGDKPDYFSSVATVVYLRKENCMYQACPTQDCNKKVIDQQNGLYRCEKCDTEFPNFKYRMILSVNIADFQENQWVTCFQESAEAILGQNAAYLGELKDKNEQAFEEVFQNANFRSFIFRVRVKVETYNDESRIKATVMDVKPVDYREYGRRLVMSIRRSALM
T1 sequence (P15927 whole entry): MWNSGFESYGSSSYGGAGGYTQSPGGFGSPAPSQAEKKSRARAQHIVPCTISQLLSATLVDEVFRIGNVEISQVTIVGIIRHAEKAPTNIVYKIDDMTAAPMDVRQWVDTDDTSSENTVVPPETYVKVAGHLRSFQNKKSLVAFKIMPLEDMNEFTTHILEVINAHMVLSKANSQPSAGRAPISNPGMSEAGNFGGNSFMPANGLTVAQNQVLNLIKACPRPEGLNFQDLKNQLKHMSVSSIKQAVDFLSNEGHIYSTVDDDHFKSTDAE
T1 sequence (P35244 whole entry): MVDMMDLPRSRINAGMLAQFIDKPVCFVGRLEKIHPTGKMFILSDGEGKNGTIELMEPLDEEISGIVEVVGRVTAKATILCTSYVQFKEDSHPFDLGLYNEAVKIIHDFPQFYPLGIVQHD
Excerpt: In the cell, ssDNA is typically found in complex with Replication protein A (RPA), the major eukaryotic ssDNA-binding protein essential for DNA replication, repair and recombination ([Wold, 1997]; [Oakley and Patrick, 2010]; [Chen and Wold, 2014]). The RPA-ssDNA complex is a physiologically relevant substrate for the RAD52-mediated strand annealing. […] RPA binds ssDNA with high affinity and extends the ssDNA to its contour length. In our assays such an extension manifests as a distinct FRET state of ~0.3, which is readily distinguished from a FRET state of ~0.48 of free Cy3-dT30-Cy5 ssDNA, as well as ~0.63 FRET of the stoichiometric ssDNA-RPA-RAD52 complex (see Figure 2—figure supplement 1 and ([Grimme and Spies, 2011]) for details). […] Both, however, inhibited the RAD52 binding to and wrapping of RPA-coated ssDNA with IC50 values identical to those determined without RPA (Figure 2e and Figure 3e).
In all experiments, the FRET values for each data point were corrected for the effects of the compounds on the respective substrate in the absence of RAD52.

RAD52 [2] = target: T2, RAD52 (Homo sapiens, UniProt P43351); assay: WaterLOGSY NMR binding to RAD52; details: 20-40 μM compound, 3.3 μM RAD52
T2 construct: made in house
T2 sequence (P43351 1-418): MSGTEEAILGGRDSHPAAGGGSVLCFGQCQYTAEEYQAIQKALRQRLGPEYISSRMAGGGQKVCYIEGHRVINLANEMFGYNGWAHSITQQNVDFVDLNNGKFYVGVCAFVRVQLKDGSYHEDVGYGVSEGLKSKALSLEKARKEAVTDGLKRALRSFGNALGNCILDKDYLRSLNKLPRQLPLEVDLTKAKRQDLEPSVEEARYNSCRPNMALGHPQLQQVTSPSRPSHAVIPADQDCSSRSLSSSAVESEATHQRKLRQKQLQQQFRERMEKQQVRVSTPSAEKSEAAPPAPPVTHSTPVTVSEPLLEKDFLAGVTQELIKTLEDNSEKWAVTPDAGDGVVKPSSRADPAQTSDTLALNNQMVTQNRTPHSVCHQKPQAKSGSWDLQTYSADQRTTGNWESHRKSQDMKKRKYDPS
Excerpt: (§1) To confirm that the selected compounds bind RAD52, we employed water-ligand observation with gradient spectroscopy (WaterLOGSY), an NMR technique, which is based on transfer of magnetization from bulk water to the protein-bound compound of interest ([Dalvit et al., 2001], [2000]). In WaterLOGSY spectrum, if a compound binds to a protein, the compound will receive negative nuclear Overhauser effects (NOEs) due to the slow tumbling of the protein-compound complex, leading to a positive WaterLOGSY peak. […] Similarly, the binding of ‘6’to RAD52 is evident from the positive WaterLOGSY peaks that are clearly detected for this compound (Figure 3a).
(§2) Compound binding to RAD52 and RPA proteins was analyzed using water-ligand observation with gradient spectroscopy (WaterLOGSY) NMR experiments ([Dalvit et al., 2001], [2000]). The WaterLOGSY spectra of compounds in the presence of RAD52 or RPA were acquired using a water NOE mixing time of 1 s and a T2 relaxation filter of 50 ms just before data acquisition to suppress the broad signals derived from protein. The protein buffer used in the experiments contains 10 mM Tris-d11, 75 mM KCl, 0.25 mM EDTA, pH 7.5, and 10% D20. All NMR data were acquired on a Bruker Avance II 800 MHz NMR spectrometer equipped with a sensitive cryoprobe and recorded at 25°C. The ^1H chemical shifts were referenced to 2,2-dimethyl-2-silapentane-5-sulfonate (DSS). NMR spectra were processed using NMR Pipe ([Delaglio et al., 1995]) and analysed using NMR View ([Johnson and Blevins, 1994]).

RPA [3] = target: T3, RPA (Homo sapiens, UniProt P15927+P27694+P35244); assay: WaterLOGSY NMR binding to RPA; details: 20-40 μM compound, 3.3 μM RPA
T3 construct: made in house
T3 sequence (P27694 whole entry): as the sequence (P27694 whole entry) above
T3 sequence (P15927 whole entry): as the sequence (P15927 whole entry) above
T3 sequence (P35244 whole entry): as the sequence (P35244 whole entry) above
Excerpt: as §1, §2

[4] = tested on: GM01604 cells (hTERT-immortalized wild-type human fibroblasts); assay: Neutral comet assay, MUS81/EME1/RAD52-dependent DSB formation; assay type: cell-based; details: Homo sapiens, Fibroblast; GM01604, 2 mM HU + 300 nM UCN01, 6h; read-out: IC50, decrease of mean tail moment following HU treatment
Excerpt: In human cells, RAD52 may perform both limited recombination-mediator function in the RAD51-dependent pathway ([Lok and Powell, 2012]; [Benson et al., 1998]; [Feng et al., 2011]) as well as additional RAD51-independent roles ([Lok and Powell, 2012]; [Murfuni et al., 2013]; [McIlwraith and West, 2008]). One of these HR independent roles of RAD52 involves stimulation of MUS81/EME1-dependent DSB formation at replication forks stalled by hydroxyurea (HU) treatment in the absence of cellular checkpoints ([Murfuni et al., 2013]). Since the most likely targets of these MUS81/EME1/RAD52-dependent DSBs are the DNA structures produced by RAD52 ([Murfuni et al., 2013]), we expected this activity to depend on the RAD52-ssDNA interaction (Figure 5a). To confirm this, we assessed DSB formation in checkpoint deficient cells using the neutral comet assay. These assays monitor MUS81/EME1/RAD52-dependent DSB formation upon induction of replication stress by HU treatment in primary fibroblasts immortalized by hTERT expression and treated with UNC01 to inhibit CHK1 kinase (Figure 5b). […] Importantly, these inhibitors recapitulate RAD52 depletion by inhibiting RAD52-MUS81-dependent DSBs at stalled replication forks (Figure 5a–b). […] It also confirms our previous supposition that the target of MUS81/EME1-mediated cleavage under these conditions are indeed the structures annealed by RAD52. […]
To induce RAD52-MUS81-dependent cleavage at arrested replication forks ([Murfuni et al., 2013]), hTERT-immortalized wild-type human fibroblasts (GM01604) were treated with 2 mM HU and 300 nM UCN01 for 6h, in the presence and absence of varying concentrations of ‘1’ or ‘6’. […] Slides were analyzed by a computerized image analysis system (Comet IV, Perceptive UK). To assess the quantity of DNA damage, computer-generated tail moment values (tail length x fraction of total DNA in the tail) were used. […] A minimum of 100 cells were analyzed for each compound concentration point.

[5] = target: T4, interaction between RAD52 and RPA proteins (Homo sapiens, UniProt P43351); assay: Ni-NTA pull-down of the RAD52-RPA interaction; assay type: binding; details: 3 μM RAD52, 3 μM RPA, 3 μM compound
T4 construct: made in house
T4 sequence (P27694 whole entry partner, one chain of several): as the sequence (P27694 whole entry) above
T4 sequence (P15927 whole entry partner, one chain of several): as the sequence (P15927 whole entry) above
T4 sequence (P35244 whole entry partner, one chain of several): as the sequence (P35244 whole entry) above

[6] = target: the molecule itself; assay: dynamic light scattering; average hydrodynamic radius of RAD52 (15.8 uM) alone or with equimolar compound; 25 C; 50 mM Tris-HCl pH 7.5, 200 mM KCl, 1 mM DTT, 0.5 mM EDTA
RAD52;RPA = RAD52;RPA (Homo sapiens?;Homo sapiens?, UniProt P43351;P27694;P15927;P35244 1-418;1-616;1-270;1-121, |); assay: FRET; 1 nM RPA-coated ssDNA titrated with RAD52; FRET about 0.63; FRET: 30 mM Tris-acetate pH 7.5, 1 mM DTT, 0.1 mg/mL BSA, 25 C; HTS: 20 mM Hepes pH 7.5, 1 mM DTT, 0.1 mg/mL BSA, 25 C; details: protein: recombinant;recombinant; tags: ;; chain copies: 7;1;1;1; label: Cy3 and Cy5 at the two ends
RAD52;RPA, sequence (P27694 whole entry, chain 2 of 3): as the sequence (P27694 whole entry) above
RAD52;RPA, sequence (P15927 whole entry, chain 3 of 3): as the sequence (P15927 whole entry) above
RAD52;RPA, sequence (P35244 whole entry, chain 4 of 3): as the sequence (P35244 whole entry) above

RAD52 [7] = target: T5, RAD52 (UniProt P43351 1-418); assay: FRET; 1 nM ssDNA; stoichiometric wrapped complex at about 8 nM RAD52; FRET: 30 mM Tris-acetate pH 7.5, 1 mM DTT, 0.1 mg/mL BSA, 25 C; HTS: 20 mM Hepes pH 7.5, 1 mM DTT, 0.1 mg/mL BSA, 25 C; details: protein: recombinant; chain copies: 7; label: Cy3 and Cy5 at the two ends
T5 sequence: T2 sequence (P43351 1-418)

RPA [8] = target: RPA (UniProt P27694;P15927;P35244 1-616;1-270;1-121); assay: FRET; 1 nM RPA, 1 nM ssDNA; FRET about 0.3 versus about 0.48 for free DNA; FRET: 30 mM Tris-acetate pH 7.5, 1 mM DTT, 0.1 mg/mL BSA, 25 C; HTS: 20 mM Hepes pH 7.5, 1 mM DTT, 0.1 mg/mL BSA, 25 C; details: protein: recombinant; copies: 1;1;1; label: Cy3 and Cy5 at the two ends
RPA (UniProt P27694;P15927;P35244 1-616;1-270;1-121), sequence (P27694 whole entry, chain 1 of 3): as the sequence (P27694 whole entry) above
RPA (UniProt P27694;P15927;P35244 1-616;1-270;1-121), sequence (P15927 whole entry, chain 2 of 3): as the sequence (P15927 whole entry) above
RPA (UniProt P27694;P15927;P35244 1-616;1-270;1-121), sequence (P35244 whole entry, chain 3 of 3): as the sequence (P35244 whole entry) above

Molecule: NC(Cc1cc(O)c(O)cc1O)C(=O)O (racemic) [6-hydroxy-DL-dopa]
- effect on RAD52 supramolecular assembly (RAD52 [1]): disrupts supramolecular assembly of the RAD52 protein

Molecule: O=C(OC1Cc2c(O)cc(O)cc2OC1c1cc(O)c(O)c(O)c1)c1cc(O)c(O)c(O)c1 (stereo not shown) [Compound 6, Epigallocatechin-3-monogallate]
- effect on the RPA-ssDNA interaction (RPA-ssDNA interaction): neither ‘1’ nor ‘6’ affected the RPA-ssDNA interaction
- binding to RAD52 (WaterLOGSY) (RAD52 [2]): physically interact with RAD52 protein
- binding to RPA (WaterLOGSY) (RPA [3]): also binds to RPA
- IC50 [4]: ~10 µM
- effect on the RAD52-RPA interaction [5]: neither ‘1’ nor ‘6’ interfered with the interaction between the two proteins

B1: 6xHis-tagged human RAD52 protein (natural protein, UniProt P43351 1-418, looked up)
chain: T2 sequence (P43351 1-418)
notes: RAD52, human DNA repair protein; the N-terminal domain in PDB 1KNO is an undecameric ring
- binding result [6]: binds

Molecule: TTTTTTTTTTTTTTTTTTTTTTTTTTTTTT (ssDNA) [Cy3-dT30-Cy5]
- binding result (RAD52;RPA): binds
- binding result (RAD52 [7]): binds
- binding result (RPA [8]): binds
